PubChem BioAssay AID1259407 (Chemical Carcinogenesis Research Information System (CCRIS), 2018)
Calls of active or inactive are those of the source. The rule behind the calls is not given here.

Test system: CCRIS mutagenicity, Ames/micronucleus/aberration tests
Assay: CCRIS mutagenicity studies
[1] = Test System: MOUSE LYMPHOMA, Strain/Indicator: L5178Y (TK+/TK-), Metabolic Activation: NONE, Method: SUSPENSION/PLATE
[2] = Test System: AMES SALMONELLA TYPHIMURIUM, Strain/Indicator: TA98, Metabolic Activation: NONE, Method: STANDARD PLATE
[3] = Test System: AMES SALMONELLA TYPHIMURIUM, Strain/Indicator: TA100, Metabolic Activation: NONE, Method: STANDARD PLATE

CN
mutagenic call (Test System: AMES SALMONELLA TYPHIMURIUM, Strain/Indicator: TA98, Metabolic Activation: NONE, Method: GAS EXPOSURE): inactive; negative
mutagenic call (Test System: AMES SALMONELLA TYPHIMURIUM, Strain/Indicator: TA98, Metabolic Activation: NONE, Method: PREINCUBATION): inactive; negative
mutagenic call (Test System: AMES SALMONELLA TYPHIMURIUM, Strain/Indicator: TA98, Metabolic Activation: RAT, LIVER, S-9, AROCLOR 1254 (5,15 OR 30%), Method: PREINCUBATION): inactive; negative
mutagenic call (Test System: AMES SALMONELLA TYPHIMURIUM, Strain/Indicator: TA98, Metabolic Activation: RAT, LIVER, S-9, SODIUM PHENOBARBITAL AND 5,6-BENZOFLAVONE, Method: GAS EXPOSURE): inactive; negative
mutagenic call (Test System: AMES SALMONELLA TYPHIMURIUM, Strain/Indicator: TA100, Metabolic Activation: NONE, Method: GAS EXPOSURE): inactive; negative
mutagenic call (Test System: AMES SALMONELLA TYPHIMURIUM, Strain/Indicator: TA100, Metabolic Activation: NONE, Method: PREINCUBATION): inactive; negative
mutagenic call (Test System: AMES SALMONELLA TYPHIMURIUM, Strain/Indicator: TA100, Metabolic Activation: RAT, LIVER, S-9, AROCLOR 1254 (5,15 OR 30%), Method: PREINCUBATION): inactive; negative
mutagenic call (Test System: AMES SALMONELLA TYPHIMURIUM, Strain/Indicator: TA100, Metabolic Activation: RAT, LIVER, S-9, SODIUM PHENOBARBITAL AND 5,6-BENZOFLAVONE, Method: GAS EXPOSURE): inactive; negative
mutagenic call (Test System: AMES SALMONELLA TYPHIMURIUM, Strain/Indicator: TA104, Metabolic Activation: NONE, Method: PREINCUBATION): inactive; negative
mutagenic call (Test System: AMES SALMONELLA TYPHIMURIUM, Strain/Indicator: TA104, Metabolic Activation: RAT, LIVER, S-9, AROCLOR 1254 (5,15 OR 30%), Method: PREINCUBATION): inactive; negative
mutagenic call (Test System: AMES SALMONELLA TYPHIMURIUM, Strain/Indicator: TA1535, Metabolic Activation: NONE, Method: GAS EXPOSURE): inactive; negative
mutagenic call (Test System: AMES SALMONELLA TYPHIMURIUM, Strain/Indicator: TA1535, Metabolic Activation: RAT, LIVER, S-9, SODIUM PHENOBARBITAL AND 5,6-BENZOFLAVONE, Method: GAS EXPOSURE): inactive; negative
mutagenic call (Test System: AMES SALMONELLA TYPHIMURIUM, Strain/Indicator: TA1537, Metabolic Activation: NONE, Method: GAS EXPOSURE): inactive; negative
mutagenic call (Test System: AMES SALMONELLA TYPHIMURIUM, Strain/Indicator: TA1537, Metabolic Activation: RAT, LIVER, S-9, SODIUM PHENOBARBITAL AND 5,6-BENZOFLAVONE, Method: GAS EXPOSURE): inactive; negative
mutagenic call (Test System: E. COLI, Strain/Indicator: WP2UVRA, Metabolic Activation: NONE, Method: GAS EXPOSURE): inactive; negative
mutagenic call (Test System: E. COLI, Strain/Indicator: WP2UVRA, Metabolic Activation: RAT, LIVER, S-9, SODIUM PHENOBARBITAL AND 5,6-BENZOFLAVONE, Method: GAS EXPOSURE): inactive; negative
mutagenic call [1]: active; positive

CC1NC(C(=O)O)Cc2c1[nH]c1ccccc21 (stereo unspecified)
mutagenic call (Test System: AMES SALMONELLA TYPHIMURIUM, Strain/Indicator: TA97, Metabolic Activation: NONE, Method: STANDARD PLATE): inactive; negative
mutagenic call (Test System: AMES SALMONELLA TYPHIMURIUM, Strain/Indicator: TA97, Metabolic Activation: RAT, LIVER, S-9, AROCLOR 1254, Method: STANDARD PLATE): inactive; negative
mutagenic call [2]: inactive; negative
mutagenic call (Test System: AMES SALMONELLA TYPHIMURIUM, Strain/Indicator: TA98, Metabolic Activation: RAT, LIVER, S-9, AROCLOR 1254, Method: STANDARD PLATE): inactive; negative
mutagenic call [3]: inactive; negative
mutagenic call (Test System: AMES SALMONELLA TYPHIMURIUM, Strain/Indicator: TA100, Metabolic Activation: RAT, LIVER, S-9, AROCLOR 1254, Method: STANDARD PLATE): inactive; negative

O=[N+]([O-])c1ccc2ccc3c4c(cc5ccc1c2c53)[C@@H](O)[C@H](O)[C@@H]1O[C@H]41
mutagenic call (Test System: CHINESE HAMSTER OVARY, Strain/Indicator: CHO-K1-BH4 (HGPRT)/6-THIOGUANINE, Metabolic Activation: NONE): active; positive

C=C(C)C1Cc2c(cc(O)c3c(=O)c4ccccc4n(C)c23)O1 (stereo unspecified)
mutagenic call [2]: inactive; negative
mutagenic call (Test System: AMES SALMONELLA TYPHIMURIUM, Strain/Indicator: TA98, Metabolic Activation: RAT, LIVER, S-9, 3-METHYLCHOLANTHRENE, Method: STANDARD PLATE): active; positive
mutagenic call (Test System: AMES SALMONELLA TYPHIMURIUM, Strain/Indicator: TA98, Metabolic Activation: RAT, LIVER, S-9, PHENOBARBITAL, Method: STANDARD PLATE): active; positive
mutagenic call (Test System: AMES SALMONELLA TYPHIMURIUM, Strain/Indicator: TA98, Metabolic Activation: RAT, LIVER, S-9, Method: STANDARD PLATE): active; positive
mutagenic call [3]: inactive; negative
mutagenic call (Test System: AMES SALMONELLA TYPHIMURIUM, Strain/Indicator: TA100, Metabolic Activation: RAT, LIVER, S-9, 3-METHYLCHOLANTHRENE, Method: STANDARD PLATE): active; positive
mutagenic call (Test System: AMES SALMONELLA TYPHIMURIUM, Strain/Indicator: TA100, Metabolic Activation: RAT, LIVER, S-9, PHENOBARBITAL, Method: STANDARD PLATE): active; positive
mutagenic call (Test System: AMES SALMONELLA TYPHIMURIUM, Strain/Indicator: TA100, Metabolic Activation: RAT, LIVER, S-9, Method: STANDARD PLATE): active; positive

Clc1ccc(C(c2ccccc2Cl)C(Cl)(Cl)Cl)cc1 (stereo unspecified)
mutagenic call (End Point: IN VIVO CHROMOSOMAL ABERRATIONS, Test System: MAMMARY GLAND CELLS USING DUAL PROBE FISH, Species: RAT, Strain/Sex: SPRAGUE-DAWLEY/FEMALE, Route: SUBCUTANEOUS INJECTION): active; positive (polyploidy)
mutagenic call (End Point: IN VIVO MICRONUCLEUS, Test System: MAMMARY GLAND CELLS, Species: RAT, Strain/Sex: SPRAGUE-DAWLEY/FEMALE, Route: SUBCUTANEOUS INJECTION): inactive; negative

[Ru]
mutagenic call (End Point: In vitro chromosomal aberrations, Test System: Human lymphocytes, Metabolic Activation: None): inactive; negative. actual compound tested was cis(dichloro)tetraammonium ruthenium(iii)ch

O=C(NC(Cc1cc(=O)[nH]c2ccccc12)C(=O)O)c1ccc(Cl)cc1 (stereo unspecified)
mutagenic call [2]: inactive; negative
mutagenic call (Test System: AMES SALMONELLA TYPHIMURIUM, Strain/Indicator: TA98, Metabolic Activation: S-9, Method: STANDARD PLATE): inactive; negative
mutagenic call [3]: inactive; negative
mutagenic call (Test System: AMES SALMONELLA TYPHIMURIUM, Strain/Indicator: TA100, Metabolic Activation: S-9, Method: STANDARD PLATE): inactive; negative
mutagenic call (Test System: AMES SALMONELLA TYPHIMURIUM, Strain/Indicator: TA1535, Metabolic Activation: NONE, Method: STANDARD PLATE): inactive; negative
mutagenic call (Test System: AMES SALMONELLA TYPHIMURIUM, Strain/Indicator: TA1535, Metabolic Activation: S-9, Method: STANDARD PLATE): inactive; negative
mutagenic call (Test System: AMES SALMONELLA TYPHIMURIUM, Strain/Indicator: TA1537, Metabolic Activation: NONE, Method: STANDARD PLATE): inactive; negative
mutagenic call (Test System: AMES SALMONELLA TYPHIMURIUM, Strain/Indicator: TA1537, Metabolic Activation: S-9, Method: STANDARD PLATE): inactive; negative
mutagenic call (Test System: AMES SALMONELLA TYPHIMURIUM, Strain/Indicator: TA1538, Metabolic Activation: NONE, Method: STANDARD PLATE): inactive; negative
mutagenic call (Test System: AMES SALMONELLA TYPHIMURIUM, Strain/Indicator: TA1538, Metabolic Activation: S-9, Method: STANDARD PLATE): inactive; negative
mutagenic call (Test System: E.COLI, Strain/Indicator: WP2 UVRA, Metabolic Activation: NONE, Method: STANDARD PLATE): inactive; negative
mutagenic call (Test System: E.COLI, Strain/Indicator: WP2 UVRA, Metabolic Activation: S-9, Method: STANDARD PLATE): inactive; negative

CC(Br)C(=O)NC(C)(C)C (stereo unspecified)
mutagenic call [3]: inactive; negative

CC1(C)CCC2(C(=O)OC3OC(CO)C(O)C(O)C3O)CCC3(CO)C(=CCC4C5(C)CC(O)C(O)C(C)(C(=O)OC6OC(CO)C(O)C(O)C6O)C5CCC43C)C2C1 (stereo unspecified)
mutagenic call (End Point: In vivo micronucleus, Test System: Bone marrow polychromatic erythrocytes, Species: Mouse, Strain/Sex: C57BL/6J/Male, Route: Intraperitoneal): inactive; negative; protective when coadministered with gamma radiation
mutagenic call [1]: inactive; negative. reevaluation of results: negative
mutagenic call (Test System: MOUSE LYMPHOMA, Strain/Indicator: L5178Y (TK+/TK-), Metabolic Activation: RAT, LIVER, S-9, AROCLOR 1254, Method: SUSPENSION/PLATE): inactive; negative. reevaluation of results: negative
